Measurements from patent US7745656B2, “Stable no-delivering compounds” (Duke University, priority 1998, dated 2010).

System: E. coli cells (pTC 190)
Assay: Bacteriostatic test: nitrosylated compound solution sprayed onto E. coli culture plates
Type: cell-based
Procedure: Nitrosated 3-mercapto-1,2-propanediol was prepared with TBN bed in the Example 1. The nitrosylated compound was dissolved in 10 mL of deionized water (0.16 M) that had been passed through a CHELEX 100 column and bubbled with argon for 30 minutes. The resulting solution was red.
E. coli cells (pTC 190) were plated onto the culture plates and grown overnight at 40° C. The E. coli cells contained a plasmid encoding for ampicillin resistance. The solution was then sprayed onto a culture plate (LB/Amp/Glucose).
This plate was then sprayed with the nitrosylated compound solution at the 24th hour.

Q: Which results are given for `O=NSCC(O)CO` (stereo not drawn) [nitrosylated 3-mercapto-1,2-propanediol]?
A: Bacterial growth on culture plate sprayed with the compound solution (0.16 M in deionized water, compound prepared with TBN, LB/Amp/Glucose plate, read after 24 hours): growth of a few colonies, all localized on one side of the plate; Bacterial growth on plate with an established E. coli lawn, sprayed at the 24th hour (0.16 M solution sprayed on a continuous lawn, read after another 24 hours): lawn of colonies that was approximately as dense as prior to application; Overall antibacterial result (conclusion of Example 3): bacteriostatic
